One block for each molecule: values may come before it.
How the values were obtained:
[1] = Cytotoxicity against Chinese hamster CHO cells assessed as reduction in cell viability by MTT assay; type: toxicity, cell-based, Cricetulus griseus
SMMC-7721 = experiment: Antiproliferative activity against human SMMC-7721 cells assessed as reduction in cell viability incubated for 24 hrs by MTT assay; type: functional, cell-based; settings: SMMC-7721, 24 h
HL-60 [2] = experiment: Cytotoxicity against human HL-60 cells assessed as reduction in cell viability by MTT assay; type: functional, cell-based
[3] = test system: Panel NCI-60 (60 carcinoma cell lines); experiment: Anticancer activity against human Panel NCI-60 (60 carcinoma cell lines) cells assessed as cell growth inhibition incubated for 48 hrs by sulforhodamine B assay; type: functional
HL-60 [4] = experiment: Cytotoxicity against human HL-60 cells assessed as reduction in cell viability incubated for 48 hrs by MTT assay; type: functional, cell-based; settings: HL-60, 48 h
L1210 [5] = experiment: Cytotoxicity against mouse L1210 cells assessed as reduction in cell viability incubated for 48 hrs by MTT assay; type: functional, cell-based; settings: L1210, 48 h
[6] = Cytotoxicity against Chinese hamster CHO cells assessed as reduction in cell viability incubated for 48 hrs by MTT assay; type: toxicity, cell-based, Cricetulus griseus
SK-MEL3 = experiment: Anticancer activity against human SK-MEL3 cells assessed as reduction in cell viability incubated for 72 hrs by MTT assay; type: functional, cell-based; settings: SK-MEL3, 72 h
KB = experiment: Anticancer activity against human KB cells assessed as reduction in cell viability incubated for 72 hrs by MTT assay; type: functional, cell-based
MCF7 = experiment: Anticancer activity against human MCF7 cells assessed as reduction in cell viability incubated for 72 hrs by MTT assay; type: functional, cell-based; settings: MCF7, 72 h
A-431 = experiment: Anticancer activity against human A-431 cells assessed as reduction in cell viability incubated for 72 hrs by MTT assay; type: functional, cell-based; settings: A-431, 72 h
SW480 = experiment: Anticancer activity against human SW480 cells assessed as reduction in cell viability incubated for 72 hrs by MTT assay; type: functional, cell-based; settings: SW480, 72 h
EJ = experiment: Anticancer activity against human EJ cells assessed as reduction in cell viability incubated for 72 hrs by MTT assay; type: functional, cell-based
CT26 = experiment: Antitumor activity against mouse CT26 cells assessed as reduction in cell viability incubated for 4 hrs by MTT assay; type: functional, cell-based; settings: CT26, 4 h
A549 = experiment: Antitumor activity against human A549 cells assessed as reduction in cell viability incubated for 4 hrs by MTT assay; type: functional, cell-based; settings: A549, 4 h
L1210 [7] = experiment: Antiproliferative activity against mouse L1210 cells assessed as reduction in cell viability by MTT assay; type: functional, cell-based
SiHa = experiment: Antiproliferative activity against human SiHa cells assessed as cell growth inhibition incubated for 48 hrs by sulforhodamine B assay; type: functional
PANC-1 = experiment: Antiproliferative activity against human PANC-1 cells assessed as cell growth inhibition incubated for 48 hrs by sulforhodamine B assay; type: functional
L1210 [8] = experiment: Cytotoxicity against mouse L1210 cells assessed as reduction in cell viability by MTT assay; type: functional, cell-based

IC50 (SMMC-7721): 1.3 µM
Compound: COc1ccccc1-c1nnc(CSc2nnc(-c3cn4c5c(c(N6CCN(C)CC6)c(F)cc5c3=O)OC[C@@H]4C)o2)o1
IC50 [1]: 1 µM
IC50 (HL-60 [2]): 2.2 µM

Compound: CCn1cc(C(=O)O)c(=O)c2cc(F)c(N3CCN(CC(=O)c4ccccc4)CC3)cc21
GI50 [3]: 22 µM

Compound: CC1COc2c(N3CCN(C)CC3)c(F)cc3c(=O)c(-c4nn(CN(C)C)c(=S)n4/N=C/c4ccccc4O)cn1c23 (configuration not stated)
IC50 (HL-60 [4]): 0.14 µM
IC50 (L1210 [5]): 0.14 µM
IC50 at 48 h [6]: 0.14 µM

IC50 (SK-MEL3): < 10 µM
IC50 (KB): < 10 µM
IC50 (MCF7): < 10 µM
IC50 (A-431): < 10 µM
IC50 (SW480): < 10 µM
Compound: CCn1cc(C(=O)O)c(=O)c2cc(F)c(N3CCN(C/C(=N/OCc4ccccc4)c4ccc(Cl)s4)CC3)cc21
IC50 (EJ): < 10 µM

IC50 (CT26): 150 µM
IC50 (A549): 150 µM
Compound: O=C(O)c1cn(C2CC2)c2cc(N3CCN(CP(=[Se])(c4ccccc4)c4ccccc4)CC3)c(F)cc2c1=O

IC50 (CT26): 150 µM
IC50 (A549): 150 µM
Compound: CCn1cc(C(=O)O)c(=O)c2cc(F)c(N3CCN(CP(c4ccccc4)c4ccccc4)CC3)cc21

Compound: COc1cc(/C=N/n2c(-c3cn4c5c(c(N6CCN(C)CC6)c(F)cc5c3=O)OCC4C)n[nH]c2=S)ccc1O (configuration not stated)
IC50 (HL-60 [4]): 10.5 µM
IC50 (L1210 [5]): 10.5 µM
IC50 at 48 h [6]: 10.5 µM

IC50 (SK-MEL3): < 10 µM
IC50 (KB): < 10 µM
IC50 (MCF7): < 10 µM
IC50 (A-431): < 10 µM
IC50 (SW480): < 10 µM
Compound: CO/N=C(/CN1CCN(c2cc3c(cc2F)c(=O)c(C(=O)O)cn3C2CC2)CC1)c1ccc(Cl)s1
IC50 (EJ): < 10 µM

IC50 (CT26): 150 µM
IC50 (A549): 150 µM
Compound: CCn1cc(C(=O)O)c(=O)c2cc(F)c(N3CCN(CP(=[Se])(c4ccccc4)c4ccccc4)CC3)cc21

Compound: COc1cc(/C=N/n2c(-c3cn4c5c(c(N6CCN(C)CC6)c(F)cc5c3=O)OCC4C)nn(CN(C)C)c2=S)ccc1O (configuration not stated)
IC50 (HL-60 [4]): 0.14 µM
IC50 (L1210 [5]): 0.14 µM
IC50 at 48 h [6]: 0.14 µM

Compound: O=C(O)c1cn(C2CC2)c2cc(N3CCN(S(=O)(=O)c4ccc(Cl)c(Cl)c4)CC3)c(F)cc2c1=O
GI50 [3]: 2.63 µM

IC50 (L1210 [7]): 2.5 µM
Compound: CCN1CCN(c2cc3c(cc2F)c(=O)c(-c2nnc4sc(-c5cn(C6CC6)c6cc(N7CCN(C)CC7)c(F)cc6c5=O)nn24)cn3C2CC2)CC1

Compound: CCn1cc(C(=O)O)c(=O)c2cc(F)c(N3CCN(S(=O)(=O)c4ccc(Cl)cc4Cl)CC3)cc21
GI50 [3]: 2.63 µM

IC50 (SK-MEL3): < 10 µM
IC50 (KB): < 10 µM
IC50 (MCF7): < 10 µM
IC50 (A-431): < 10 µM
IC50 (SW480): < 10 µM
Compound: CCn1cc(C(=O)O)c(=O)c2cc(F)c(N3CCN(CC(=O)c4ccc(Cl)s4)CC3)nc21
IC50 (EJ): < 10 µM

Compound: CCn1cc(C(=O)O)c(=O)c2cc(F)c(N3CCN(S(=O)(=O)c4ccc(Cl)cc4)CC3)cc21
GI50 [3]: 2.63 µM

GI50 (PANC-1): 0.06 µM
Compound: CCn1cc(C(=O)O)c(=O)c2cnc(N3CCN(C(=O)CCSc4nnnn4Cc4ccccc4)CC3)nc21
GI50 (SiHa): 0.06 µM

IC50 (SK-MEL3): < 10 µM
IC50 (KB): < 10 µM
IC50 (MCF7): < 10 µM
IC50 (A-431): < 10 µM
IC50 (SW480): < 10 µM
Compound: CCn1cc(C(=O)O)c(=O)c2cc(F)c(N3CCN(CC(=O)c4ccc(Cl)s4)CC3)cc21
IC50 (EJ): < 10 µM

Compound: CC1COc2c(N3CCN(C)CC3)c(F)cc3c(=O)c(-c4n[nH]c(=S)n4/N=C/c4ccccc4O)cn1c23 (configuration not stated)
IC50 (HL-60 [4]): 10.5 µM
IC50 (L1210 [5]): 10.5 µM
IC50 at 48 h [6]: 10.5 µM

IC50 (SK-MEL3): < 10 µM
IC50 (KB): < 10 µM
IC50 (MCF7): < 10 µM
IC50 (A-431): < 10 µM
IC50 (SW480): < 10 µM
Compound: CCn1cc(C(=O)O)c(=O)c2cc(F)c(N3CCN(C/C(=N/OC)c4ccc(Cl)s4)CC3)cc21
IC50 (EJ): < 10 µM

IC50 (CT26): 150 µM
IC50 (A549): 150 µM
Compound: CCn1cc(C(=O)O)c(=O)c2cc(F)c(N3CCN(CP(=O)(c4ccccc4)c4ccccc4)CC3)cc21

IC50 (L1210 [7]): 0.2 µM
Compound: CCN1CCN(c2cc3c(cc2F)c(=O)c(-c2nnc4sc(-c5cn(C6CC6)c6cc(N7CCNCC7)c(F)cc6c5=O)nn24)cn3C2CC2)CC1

IC50 (L1210 [7]): ≤ 50 µM
Compound: CCN1CCN(c2cc3c(cc2F)c(=O)c(-c2nnc(S)n2N)cn3C2CC2)CC1

IC50 (SK-MEL3): > 128 µM
IC50 (KB): > 128 µM
IC50 (MCF7): > 128 µM
IC50 (A-431): > 128 µM
IC50 (SW480): > 128 µM
Compound: CCn1cc(C(=O)O)c(=O)c2cc(F)c(N3CCNCC3)nc21 [ENOXACIN]
IC50 (EJ): > 128 µM

Compound: O=C(N/N=C/c1ccccc1)c1cn(C2CC2)c2cc(N3CCNCC3)c(F)cc2c1=O
IC50 [1]: 25 µM
IC50 (L1210 [8]): 25 µM
IC50 (HL-60 [2]): 25 µM

Compound: COc1ccc(/C=N/n2c(-c3cn4c5c(c(N6CCN(C)CC6)c(F)cc5c3=O)OCC4C)nn(CN(C)C)c2=S)cc1O (configuration not stated)
IC50 (HL-60 [4]): 0.14 µM
IC50 (L1210 [5]): 0.14 µM
IC50 at 48 h [6]: 0.14 µM

Compound: O=C(N/N=C/c1ccc(F)cc1)c1cn(C2CC2)c2cc(N3CCNCC3)c(F)cc2c1=O
IC50 [1]: 25 µM
IC50 (L1210 [8]): 25 µM
IC50 (HL-60 [2]): 25 µM

Source: ChEMBL document CHEMBL5233217, “Modification of 7-piperazinylquinolone antibacterials to promising anticancer lead compounds: Synthesis and in vitro studies” (Eur J Med Chem, 2020)
